The source of these data is ChEMBL document CHEMBL1146657, “A novel 18 beta-glycyrrhetinic acid analogue as a potent and selective inhibitor of 11 beta-hydroxysteroid dehydrogenase 2” (Bioorg Med Chem Lett, 2004).

Molecules are shown by their SMILES.

Chain of 11-beta-hydroxysteroid dehydrogenase 1 (Rattus norvegicus) (P16232 whole entry, looked up): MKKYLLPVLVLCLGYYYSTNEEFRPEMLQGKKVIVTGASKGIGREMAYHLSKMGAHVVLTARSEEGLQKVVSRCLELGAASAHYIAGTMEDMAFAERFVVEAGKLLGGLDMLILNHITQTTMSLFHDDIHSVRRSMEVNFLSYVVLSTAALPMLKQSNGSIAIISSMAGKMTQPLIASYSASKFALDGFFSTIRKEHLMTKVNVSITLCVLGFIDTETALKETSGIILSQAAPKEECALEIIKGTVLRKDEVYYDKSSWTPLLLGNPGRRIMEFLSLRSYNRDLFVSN

The first test addresses 11-beta-hydroxysteroid dehydrogenase 1 (Rattus norvegicus) (UniProt P16232). The test is described as follows: Percent inhibition against 11-beta-hydroxysteroid dehydrogenase 1 of wistar rat liver cytosol at 10 uM was determined using [3H]cortisone.
A word on the inhibition: it is the drop in the measured response relative to a control, in per cent. Turning to `CC1(C)C2CC[C@]3(C)C(C(=O)C=C4[C@@H]5C[C@@](C)(C(=O)NC6CC6)CC[C@]5(C)CC[C@]43C)[C@@]2(C)CC[C@@H]1O` (some centres not stated), the inhibition worked out at 90%.

`CC1(C)C2CC[C@]3(C)C(C(=O)C=C4[C@@H]5C[C@@](C)(C(=O)NCCN6CCOCC6)CC[C@]5(C)CC[C@]43C)[C@@]2(C)CC[C@@H]1O` (some centres not stated): the inhibition was 19%.

Take `CC1(C)C2CC[C@]3(C)C(C(=O)C=C4[C@@H]5C[C@@](C)(C(=O)NCCO)CC[C@]5(C)CC[C@]43C)[C@@]2(C)CC[C@@H]1O` (some centres not stated): the inhibition was 36%.

In the case of `CCOC(=O)[C@H](C)NC(=O)[C@@]1(C)CC[C@]2(C)CC[C@]3(C)C(=CC(=O)C4[C@@]5(C)CC[C@H](O)C(C)(C)C5CC[C@]43C)[C@@H]2C1` (some centres not stated), the inhibition is 25%.

For `CC1(C)C2CC[C@]3(C)C(C(=O)C=C4[C@@H]5C[C@@](C)(C(=O)NN6CCOCC6)CC[C@]5(C)CC[C@]43C)[C@@]2(C)CC[C@@H]1O` (some centres not stated), the inhibition was found to be 34%.

Take `CC1(C)C2CC[C@]3(C)C(C(=O)C=C4[C@@H]5C[C@@](C)(C(=O)NCCCCCO)CC[C@]5(C)CC[C@]43C)[C@@]2(C)CC[C@@H]1O` (some centres not stated): the inhibition amounted to 88%.

Consider `CC1(C)C2CC[C@]3(C)C(C(=O)C=C4[C@@H]5C[C@@](C)(C(=O)NC6CCOC6=O)CC[C@]5(C)CC[C@]43C)[C@@]2(C)CC[C@@H]1O` (some centres not stated), for which the inhibition was found to be 71%.

Turning to `CC1(C)[C@@H](O)CC[C@]2(C)[C@H]3C(=O)C=C4[C@@H]5C[C@@](C)(C(=O)O)CC[C@]5(C)CC[C@@]4(C)[C@]3(C)CC[C@@H]12`, the inhibition was determined as 85%.

A further test addresses T1, 11-beta-hydroxysteroid dehydrogenase type 2 (Rattus norvegicus) (UniProt P50233).
T1 sequence (whole entry): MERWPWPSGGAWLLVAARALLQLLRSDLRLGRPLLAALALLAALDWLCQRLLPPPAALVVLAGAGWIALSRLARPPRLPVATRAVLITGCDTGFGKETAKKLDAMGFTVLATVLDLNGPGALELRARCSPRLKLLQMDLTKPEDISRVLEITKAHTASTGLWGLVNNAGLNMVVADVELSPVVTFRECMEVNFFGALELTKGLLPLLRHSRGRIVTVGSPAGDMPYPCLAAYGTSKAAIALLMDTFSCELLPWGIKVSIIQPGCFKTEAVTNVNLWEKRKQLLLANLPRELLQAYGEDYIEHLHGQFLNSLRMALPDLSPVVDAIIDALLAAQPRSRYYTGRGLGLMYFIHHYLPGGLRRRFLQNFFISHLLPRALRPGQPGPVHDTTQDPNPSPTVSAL
The test is described as follows: (§1) Percent inhibition against 11-beta-hydroxysteroid dehydrogenase 2 of wistar rat kidney at 10 uM was determined using [3H]cortisol.
Take `CC1(C)C2CC[C@]3(C)C(C(=O)C=C4[C@@H]5C[C@@](C)(C(=O)NC6CC6)CC[C@]5(C)CC[C@]43C)[C@@]2(C)CC[C@@H]1O` (some centres not stated): the inhibition came out at 103%.

Regarding `CC1(C)C2CC[C@]3(C)C(C(=O)C=C4[C@@H]5C[C@@](C)(C(=O)NCCN6CCOCC6)CC[C@]5(C)CC[C@]43C)[C@@]2(C)CC[C@@H]1O` (some centres not stated), the inhibition was found to be 66%.

Consider `CC1(C)C2CC[C@]3(C)C(C(=O)C=C4[C@@H]5C[C@@](C)(C(=O)NCCO)CC[C@]5(C)CC[C@]43C)[C@@]2(C)CC[C@@H]1O` (some centres not stated), for which the inhibition came out at 92%.

`CCOC(=O)[C@H](C)NC(=O)[C@@]1(C)CC[C@]2(C)CC[C@]3(C)C(=CC(=O)C4[C@@]5(C)CC[C@H](O)C(C)(C)C5CC[C@]43C)[C@@H]2C1` (some centres not stated): the inhibition is 35%.

In the case of `CC1(C)C2CC[C@]3(C)C(C(=O)C=C4[C@@H]5C[C@@](C)(C(=O)NN6CCOCC6)CC[C@]5(C)CC[C@]43C)[C@@]2(C)CC[C@@H]1O` (some centres not stated), the inhibition was 20%.

`CC1(C)C2CC[C@]3(C)C(C(=O)C=C4[C@@H]5C[C@@](C)(C(=O)NCCCCCO)CC[C@]5(C)CC[C@]43C)[C@@]2(C)CC[C@@H]1O` (some centres not stated): the inhibition came out at 98%.

With `CC1(C)C2CC[C@]3(C)C(C(=O)C=C4[C@@H]5C[C@@](C)(C(=O)NC6CCOC6=O)CC[C@]5(C)CC[C@]43C)[C@@]2(C)CC[C@@H]1O` (some centres not stated), the inhibition was 25%.

Take `CC1(C)[C@@H](O)CC[C@]2(C)[C@H]3C(=O)C=C4[C@@H]5C[C@@](C)(C(=O)O)CC[C@]5(C)CC[C@@]4(C)[C@]3(C)CC[C@@H]12`: the inhibition worked out at 101%.

In the next test the target is T2, 11-beta-hydroxysteroid dehydrogenase type 2 (Rattus norvegicus, UniProt P50233).
T2 sequence (P50233 whole entry): T1 sequence (whole entry)
The description is as §1.
Usually IC50 stands for the concentration that gives 50% inhibition. A lower IC50 goes with greater potency. As to `CC1(C)C2CC[C@]3(C)C(C(=O)C=C4[C@@H]5C[C@@](C)(C(=O)NCCO)CC[C@]5(C)CC[C@]43C)[C@@]2(C)CC[C@@H]1O` (some centres not stated), the midpoint of inhibition, the IC50, lay at 4 pM.
